Laboratory results taken from patent US20230053540A1, “TREATMENT OF LIVER INJURY” (Massachusetts Institute of Technology, priority 2019, published 2023).

Tested on: hepatocytes
Assay: Seq-Well scRNA-Seq of hepatocytes after APAP overdose (signature scores, DEG vs untreated)
Format: in vivo, mouse
Conditions: A6 vs UT

With `CC(=O)Nc1ccc(O)cc1` [APAP, acetaminophen] the “Med13 A6logFC” value was 0.2949, the “Med13 avg_logFC” value was 0.2949 and the “Med13 pct.1” value was 0.325. The “Megf9 A6logFC” value was 0.2769, the “Megf9 avg_logFC” value was 0.2769 and the “Megf9 pct.1” value was 0.289. For the same compound, the “Mettl7b avg_logFC” value was −0.4527, the “Mettl7b pct.1” value was 0.647 and the “Mettl20 avg_logFC” value was −0.3314. For the same compound, the “Mettl20 pct.1” value was 0.119, the “Mfsd2a avg_logFC” value was 0.6661 and the “Mgea5 A6logFC” value was 0.3263. For the same compound, the “Mgea5 avg_logFC” value was 0.3263, the “Mgea5 pct.1” value was 0.413 and the “Mgst1 avg_logFC” value was −1.06. For the same compound, the “Minos1 avg_logFC” value was −0.4555, the “Minos1 pct.1” value was 0.332 and the “Mlycd avg_logFC” value was −0.2909. The “Mlycd pct.1” value was 0.329, the “Mmp8 avg_logFC” value was 0.359 and the “Mmp14 avg_logFC” value was 0.2889. The “Mmp14 pct.1” value was 0.253, the “Mpc2 avg_logFC” value was −0.4828 and the “Mpc2 pct.1” value was 0.599. The “Mpeg1 avg_logFC” value was 0.4935, the “Mpeg1 pct.1” value was 0.263 and the “Mrap avg_logFC” value was 0.8841. For the same compound, the “Mrp63 avg_logFC” value was −0.4422, the “Mrp63 pct.1” value was 0.277 and the “Mrpl11 A6logFC” value was −0.2685. For the same compound, the “Mrpl15 A6logFC” value was −0.2912, the “Mrpl20 A6logFC” value was −0.3093 and the “Mrpl20 avg_logFC” value was −0.3093. For the same compound, the “Mrpl20 pct.1” value was 0.301, the “Mrpl28 A6logFC” value was −0.2699 and the “Mrpl28 avg_logFC” value was −0.2699. For the same compound, the “Mrpl28 pct.1” value was 0.229, the “Mrpl33 A6logFC” value was −0.2654 and the “Mrpl34 A6logFC” value was −0.2838. The “Mrpl41 A6logFC” value was −0.2674, the “Mrpl42 A6logFC” value was −0.2845 and the “Mrps12 A6logFC” value was −0.2504. The “Mrps12 avg_logFC” value was −0.2504, the “Mrps12 pct.1” value was 0.193 and the “Mrps24 avg_logFC” value was −0.3904. For the same compound, the “Mrps24 pct.1” value was 0.31, the “Msrb1 avg_logFC” value was −0.599 and the “Mt1 avg_logFC” value was 2.388. The “Mt2 avg_logFC” value was 2.063, the “Mthfd2 avg_logFC” value was 0.2624 and the “Mug2 avg_logFC” value was 0.3683. The “Mug2 pct.1” value was 0.776, the “Mup3 avg_logFC” value was −0.7035 and the “Mup4 avg_logFC” value was −0.9953. The “Mup5 avg_logFC” value was −1.237, the “Mup6 avg_logFC” value was −1.872 and the “Mup7 avg_logFC” value was −0.9414. For the same compound, the “Mup8 avg_logFC” value was −0.7526, the “Mup8 pct.1” value was 0.098 and the “Mup9 avg_logFC” value was −2.004. The “Mup11 avg_logFC” value was −3.214, the “Mup12 avg_logFC” value was −1.27 and the “Mup15 avg_logFC” value was −1.316. For the same compound, the “Mup16 avg_logFC” value was −1.602, the “Mup17 avg_logFC” value was −2.354 and the “Mup18 avg_logFC” value was −1.628. The “Mup19 avg_logFC” value was −2.396, the “Mup21 avg_logFC” value was −0.8272 and the “Mvd A6logFC” value was −0.2704. For the same compound, the “Mxd1 A6logFC” value was 0.2978, the “Mybbp1a avg_logFC” value was 0.4312 and the “Mybbp1a pct.1” value was 0.396. The “Myeov2 A6logFC” value was −0.3052, the “Myeov2 avg_logFC” value was −0.3052 and the “Myeov2 pct.1” value was 0.303. The “Myh9 avg_logFC” value was 1.16, the “Myl12a avg_logFC” value was 0.3908 and the “Myl12a pct.1” value was 0.461. For the same compound, the “Myo1b A6logFC” value was 0.2624, the “Myo1e avg_logFC” value was 0.6143 and the “Naa50 A6logFC” value was 0.2657. For the same compound, the “Naa50 avg_logFC” value was 0.2657, the “Naa50 pct.1” value was 0.444 and the “Naprt1 A6logFC” value was −0.3381. For the same compound, the “Nars avg_logFC” value was 0.4378, the “Nars pct.1” value was 0.606 and the “Ncl avg_logFC” value was 0.4845. For the same compound, the “Ncl pct.1” value was 0.69, the “Ndufa2 avg_logFC” value was −0.3965 and the “Ndufa2 pct.1” value was 0.492. For the same compound, the “Ndufa3 avg_logFC” value was −0.4116, the “Ndufa3 pct.1” value was 0.344 and the “Ndufa4 avg_logFC” value was −0.6831. For the same compound, the “Ndufa5 A6logFC” value was −0.252, the “Ndufa5 avg_logFC” value was −0.252 and the “Ndufa5 pct.1” value was 0.418. For the same compound, the “Ndufa6 avg_logFC” value was −0.6136, the “Ndufa7 avg_logFC” value was −0.5559 and the “Ndufa7 pct.1” value was 0.406. The “Ndufa13 avg_logFC” value was −0.4388 and the “Ndufa13 pct.1” value was 0.549.
